{"source": "PubChem BioAssay AID256", "about": "(DTP/NCI, 2004)", "tested_on": "CD2F1 mice, L1210 leukemia ip, survival T/C", "assay": "NCI In Vivo Anticancer Drug Screen. Data for tumor model L1210 Leukemia (intraperitoneal) in CD2F1 (CDF1) mice", "settings": "higher = longer survival", "in_short": "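Mice carrying a transplanted tumor received test compound or vehicle alone. The value is the measurement in the treated group divided by that in the vehicle-treated control group.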", "key": {"[1]": {"settings": "endpoint: mean survival time, dose: 200.0 mg/kg/injection, schedule: Q01DX009 (ip), vehicle: saline with Tween-80"}, "[2]": {"settings": "endpoint: mean survival time, dose: 400.0 mg/kg/injection, schedule: Q01DX009 (ip), vehicle: saline with Tween-80"}, "[3]": {"settings": "endpoint: mean survival time, dose: 100.0 mg/kg/injection, schedule: Q01DX009 (ip), vehicle: saline with Tween-80"}, "[4]": {"settings": "endpoint: mean survival time, dose: 100.0 mg/kg/injection, schedule: Q04DX003 (ip), vehicle: saline with Tween-80"}, "[5]": {"settings": "endpoint: mean survival time, dose: 200.0 mg/kg/injection, schedule: Q04DX003 (ip), vehicle: saline with Tween-80"}}, "note": "“And” between values parts separate entries of the source, which are not always exact repeats. Identical values can stand only once. Inconclusive results and toxic doses are left out.", "data": [{"smiles": "Cc1c(-c2ccc(C3CCCCC3)cc2)nc2ccc(F)cc2c1C(=O)O", "values": [{"measurement": "T/C", "setting": "endpoint: median survival time, dose: 12.5 mg/kg/injection, schedule: Q01DX005 (ip), vehicle: Klucel (hydroxypropylcellulose) (HPC)", "result": "109 % of control"}, {"measurement": "T/C", "setting": "endpoint: median survival time, dose: 12.5 mg/kg/injection, schedule: Q01DX005 (ip), vehicle: sodium bicarbonate", "result": "114 % of control and 104 % of control"}, {"measurement": "T/C", "setting": "endpoint: median survival time, dose: 25.0 mg/kg/injection, schedule: Q01DX005 (ip), vehicle: Klucel (hydroxypropylcellulose) (HPC)", "result": "110 % of control"}, {"measurement": "T/C", "setting": "endpoint: median survival time, dose: 25.0 mg/kg/injection, schedule: Q01DX005 (ip), vehicle: sodium bicarbonate", "result": "122 % of control and 108 % of control"}, {"measurement": "T/C", "setting": "endpoint: median survival time, dose: 50.0 mg/kg/injection, schedule: Q01DX005 (ip), vehicle: sodium bicarbonate", "result": "123 % of control and 124 % of control and 104 % of control"}, {"measurement": "T/C", "setting": "endpoint: median survival time, dose: 100.0 mg/kg/injection, schedule: Q01DX005 (ip), vehicle: sodium bicarbonate", "result": "120 % of control and 109 % of control"}, {"measurement": "T/C", "setting": "endpoint: median survival time, dose: 100.0 mg/kg/injection, schedule: Q01DX009 (ip), vehicle: Klucel (hydroxypropylcellulose) (HPC)", "result": "182 % of control"}, {"measurement": "T/C", "setting": "endpoint: median survival time, dose: 200.0 mg/kg/injection, schedule: Q01DX009 (ip), vehicle: Klucel (hydroxypropylcellulose) (HPC)", "result": "183 % of control"}, {"measurement": "T/C", "setting": "endpoint: median survival time, dose: 400.0 mg/kg/injection, schedule: Q01DX009 (ip), vehicle: Klucel (hydroxypropylcellulose) (HPC)", "result": "89 % of control"}]}, {"smiles": "CS(=N)(=O)c1ccccc1", "note": "(stereo not given)", "values": [{"measurement": "T/C", "setting": "endpoint: mean survival time, dose: 100.0 mg/kg/injection, schedule: Q04DX003 (ip), vehicle: saline", "result": "105 % of control"}, {"measurement": "T/C", "setting": "endpoint: mean survival time, dose: 200.0 mg/kg/injection, schedule: Q04DX003 (ip), vehicle: saline", "result": "103 % of control"}, {"measurement": "T/C", "setting": "endpoint: mean survival time, dose: 400.0 mg/kg/injection, schedule: Q04DX003 (ip), vehicle: saline", "result": "94 % of control"}]}, {"smiles": "O=C1C=CC(=O)N1c1ccccc1[N+](=O)[O-]", "values": [{"measurement": "T/C", "setting": "endpoint: mean survival time, dose: 3.0 mg/kg/injection, schedule: Q01DX009 (ip), vehicle: saline with Tween-80", "result": "96 % of control"}, {"measurement": "T/C", "setting": "endpoint: mean survival time, dose: 6.0 mg/kg/injection, schedule: Q01DX009 (ip), vehicle: saline with Tween-80", "result": "100 % of control"}, {"measurement": "T/C", "setting": "endpoint: mean survival time, dose: 6.25 mg/kg/injection, schedule: Q04DX003 (ip), vehicle: saline with Tween-80", "result": "100 % of control"}, {"measurement": "T/C", "setting": "endpoint: mean survival time, dose: 12.0 mg/kg/injection, schedule: Q01DX009 (ip), vehicle: saline with Tween-80", "result": "97 % of control"}, {"measurement": "T/C", "setting": "endpoint: mean survival time, dose: 12.5 mg/kg/injection, schedule: Q04DX003 (ip), vehicle: saline with Tween-80", "result": "97 % of control"}]}, {"smiles": "O=c1c(O)c(-c2ccc(O)c(O)c2)oc2cc(O)cc(O)c12", "values": [{"measurement": "T/C", "setting": "endpoint: mean survival time, dose: 100.0 mg/kg/injection, schedule: Q01DX001 (ip), vehicle: saline", "result": "100 % of control"}, {"measurement": "T/C", "setting": "endpoint: mean survival time, dose: 200.0 mg/kg/injection, schedule: Q01DX001 (ip), vehicle: saline", "result": "100 % of control"}, {"measurement": "T/C", "setting": "[1]", "result": "90 % of control"}, {"measurement": "T/C", "setting": "endpoint: mean survival time, dose: 400.0 mg/kg/injection, schedule: Q01DX001 (ip), vehicle: saline", "result": "100 % of control"}, {"measurement": "T/C", "setting": "[2]", "result": "96 % of control"}, {"measurement": "T/C", "setting": "endpoint: mean survival time, dose: 800.0 mg/kg/injection, schedule: Q01DX009 (ip), vehicle: saline with Tween-80", "result": "87 % of control"}]}, {"smiles": "COC(=O)C(Br)C(OC)c1ccc(Cl)cc1", "note": "(stereo not given)", "values": [{"measurement": "T/C", "setting": "[3]", "result": "101 % of control"}, {"measurement": "T/C", "setting": "endpoint: mean survival time, dose: 100.0 mg/kg/injection, schedule: Q04DX003 (ip), vehicle: saline sonified", "result": "100 % of control"}, {"measurement": "T/C", "setting": "[1]", "result": "95 % of control"}, {"measurement": "T/C", "setting": "endpoint: mean survival time, dose: 200.0 mg/kg/injection, schedule: Q04DX003 (ip), vehicle: saline sonified", "result": "101 % of control"}, {"measurement": "T/C", "setting": "[2]", "result": "97 % of control"}, {"measurement": "T/C", "setting": "endpoint: mean survival time, dose: 400.0 mg/kg/injection, schedule: Q04DX003 (ip), vehicle: saline sonified", "result": "95 % of control"}]}, {"smiles": "O=C1CSC(=S)N1/N=C/c1ccc(F)cc1", "values": [{"measurement": "T/C", "setting": "endpoint: mean survival time, dose: 75.0 mg/kg/injection, schedule: Q01DX001 (ip), vehicle: other", "result": "100 % of control"}, {"measurement": "T/C", "setting": "endpoint: mean survival time, dose: 150.0 mg/kg/injection, schedule: Q01DX001 (ip), vehicle: other", "result": "102 % of control"}, {"measurement": "T/C", "setting": "endpoint: mean survival time, dose: 300.0 mg/kg/injection, schedule: Q01DX001 (ip), vehicle: other", "result": "98 % of control"}]}, {"smiles": "C=C1CC(Cc2ccccc2)OC1=O", "note": "(stereo not given)", "values": [{"measurement": "T/C", "setting": "endpoint: mean survival time, dose: 25.0 mg/kg/injection, schedule: Q01DX001 (ip), vehicle: saline with Tween-80", "result": "96 % of control"}, {"measurement": "T/C", "setting": "endpoint: mean survival time, dose: 50.0 mg/kg/injection, schedule: Q01DX001 (ip), vehicle: saline with Tween-80", "result": "101 % of control"}, {"measurement": "T/C", "setting": "endpoint: mean survival time, dose: 100.0 mg/kg/injection, schedule: Q01DX001 (ip), vehicle: saline with Tween-80", "result": "101 % of control"}]}, {"smiles": "N#Cc1nccnc1Cl", "values": [{"measurement": "T/C", "setting": "[4]", "result": "96 % of control"}, {"measurement": "T/C", "setting": "[5]", "result": "86 % of control"}]}, {"smiles": "O=C1CSC(=S)N1C1OC(CO)C(O)C1O", "note": "(stereo not given)", "values": [{"measurement": "T/C", "setting": "endpoint: mean survival time, dose: 12.5 mg/kg/injection, schedule: Q01DX005 (ip), vehicle: distilled water + Tween-80", "result": "111 % of control"}, {"measurement": "T/C", "setting": "endpoint: mean survival time, dose: 25.0 mg/kg/injection, schedule: Q01DX005 (ip), vehicle: distilled water + Tween-80", "result": "102 % of control"}, {"measurement": "T/C", "setting": "endpoint: mean survival time, dose: 50.0 mg/kg/injection, schedule: Q01DX005 (ip), vehicle: distilled water + Tween-80", "result": "102 % of control"}, {"measurement": "T/C", "setting": "endpoint: mean survival time, dose: 100.0 mg/kg/injection, schedule: Q01DX005 (ip), vehicle: distilled water + Tween-80", "result": "101 % of control"}, {"measurement": "T/C", "setting": "endpoint: mean survival time, dose: 200.0 mg/kg/injection, schedule: Q01DX005 (ip), vehicle: distilled water + Tween-80", "result": "92 % of control"}]}, {"smiles": "Nc1ccc2scnc2c1", "values": [{"measurement": "T/C", "setting": "[4]", "result": "108 % of control"}, {"measurement": "T/C", "setting": "[5]", "result": "96 % of control"}, {"measurement": "T/C", "setting": "endpoint: mean survival time, dose: 400.0 mg/kg/injection, schedule: Q04DX003 (ip), vehicle: saline with Tween-80", "result": "101 % of control"}]}, {"smiles": "CC(=O)OCCCC(C)Nc1ccnc2cc(Cl)ccc12", "note": "(stereo not given)", "values": [{"measurement": "T/C", "setting": "endpoint: mean survival time, dose: 50.0 mg/kg/injection, schedule: Q01DX009 (ip), vehicle: saline with Tween-80", "result": "100 % of control"}, {"measurement": "T/C", "setting": "[3]", "result": "96 % of control"}, {"measurement": "T/C", "setting": "[4]", "result": "96 % of control"}, {"measurement": "T/C", "setting": "[1]", "result": "96 % of control"}, {"measurement": "T/C", "setting": "[5]", "result": "98 % of control"}]}]}
